Results: ChEMBL document CHEMBL1201862, “PubChem BioAssay data set” (2004)
The source made the active and inactive calls.

What was measured:
[1] = biological target: T1, Sentrin-specific protease 8 (Homo sapiens, UniProt Q96LD8); experiment: inhibition of human SENP8 cleavage activity – biochemical, luminescence, SAR follow-up (AID 504501); assay type: functional
T1 sequence (Q96LD8 whole entry): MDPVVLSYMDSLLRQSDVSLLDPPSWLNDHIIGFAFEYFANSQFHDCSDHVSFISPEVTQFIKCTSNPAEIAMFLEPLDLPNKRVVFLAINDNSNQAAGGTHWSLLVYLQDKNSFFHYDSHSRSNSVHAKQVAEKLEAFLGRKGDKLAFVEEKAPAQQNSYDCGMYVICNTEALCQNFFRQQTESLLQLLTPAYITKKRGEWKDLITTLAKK

[2] = biological target: T2, Sentrin-specific protease 7 (Homo sapiens, UniProt Q9BQF6); experiment: inhibition of human SENP7 cleavage activity – biochemical, luminescence, SAR follow-up (AID 504497); assay type: functional
T2 sequence (Q9BQF6 whole entry): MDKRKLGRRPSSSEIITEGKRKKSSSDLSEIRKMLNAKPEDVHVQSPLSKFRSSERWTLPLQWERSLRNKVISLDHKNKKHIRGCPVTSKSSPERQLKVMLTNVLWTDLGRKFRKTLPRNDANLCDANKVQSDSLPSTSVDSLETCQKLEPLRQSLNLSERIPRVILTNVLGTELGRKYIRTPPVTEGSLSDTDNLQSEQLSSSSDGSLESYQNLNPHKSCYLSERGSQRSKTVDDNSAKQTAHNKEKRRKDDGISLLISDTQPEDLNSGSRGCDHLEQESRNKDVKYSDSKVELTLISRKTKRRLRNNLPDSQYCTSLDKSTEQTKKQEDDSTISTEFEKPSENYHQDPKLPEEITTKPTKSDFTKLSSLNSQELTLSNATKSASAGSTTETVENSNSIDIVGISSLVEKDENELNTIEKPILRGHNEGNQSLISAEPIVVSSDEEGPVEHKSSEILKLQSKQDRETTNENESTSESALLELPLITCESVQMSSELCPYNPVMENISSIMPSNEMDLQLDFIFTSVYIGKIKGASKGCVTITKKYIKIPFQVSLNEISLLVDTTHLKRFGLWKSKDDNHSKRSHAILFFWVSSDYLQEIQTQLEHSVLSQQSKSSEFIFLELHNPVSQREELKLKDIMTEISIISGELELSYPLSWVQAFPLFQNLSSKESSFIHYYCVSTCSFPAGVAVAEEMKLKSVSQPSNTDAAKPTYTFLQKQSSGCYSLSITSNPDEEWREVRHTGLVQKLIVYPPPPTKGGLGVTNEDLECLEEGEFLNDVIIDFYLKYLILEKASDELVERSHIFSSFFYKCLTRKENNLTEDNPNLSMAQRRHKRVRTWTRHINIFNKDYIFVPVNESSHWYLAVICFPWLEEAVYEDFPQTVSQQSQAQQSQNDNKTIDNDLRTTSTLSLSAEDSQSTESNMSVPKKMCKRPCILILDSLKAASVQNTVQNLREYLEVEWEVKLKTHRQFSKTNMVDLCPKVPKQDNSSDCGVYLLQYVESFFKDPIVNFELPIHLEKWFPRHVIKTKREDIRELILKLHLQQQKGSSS

[3] = biological target: Protein kinase C theta type (Homo sapiens, UniProt Q04759); experiment: Navigating the Kinome. Panel member name: PRKCQ; assay type: functional
Sequence of Protein kinase C theta type (Q04759 whole entry): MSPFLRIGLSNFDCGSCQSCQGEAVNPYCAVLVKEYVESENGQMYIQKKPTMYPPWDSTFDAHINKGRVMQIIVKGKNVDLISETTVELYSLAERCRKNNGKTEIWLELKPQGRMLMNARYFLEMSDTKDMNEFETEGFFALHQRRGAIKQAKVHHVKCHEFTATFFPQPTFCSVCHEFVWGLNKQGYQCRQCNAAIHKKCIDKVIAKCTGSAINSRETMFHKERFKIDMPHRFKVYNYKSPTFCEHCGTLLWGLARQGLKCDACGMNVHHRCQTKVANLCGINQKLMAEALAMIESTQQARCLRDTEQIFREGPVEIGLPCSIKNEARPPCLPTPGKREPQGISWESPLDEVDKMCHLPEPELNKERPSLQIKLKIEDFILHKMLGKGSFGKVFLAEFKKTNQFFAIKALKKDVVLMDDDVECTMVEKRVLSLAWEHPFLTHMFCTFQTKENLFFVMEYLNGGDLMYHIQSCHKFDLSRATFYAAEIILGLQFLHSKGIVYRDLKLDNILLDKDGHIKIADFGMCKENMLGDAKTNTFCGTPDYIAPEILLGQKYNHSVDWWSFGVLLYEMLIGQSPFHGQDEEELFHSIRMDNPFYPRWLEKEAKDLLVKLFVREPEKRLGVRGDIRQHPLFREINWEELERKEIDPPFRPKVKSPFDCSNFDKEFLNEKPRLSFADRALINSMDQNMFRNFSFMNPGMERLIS

[4] = biological target: Dual specificity protein kinase CLK2 (Homo sapiens, UniProt P49760); assay type: functional
[5] = biological target: Tyrosine-protein kinase JAK2 (Homo sapiens, UniProt O60674); assay type: functional;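 also: JAK2 tested as one member of a kinase panel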
[6] = biological target: Serine/threonine-protein kinase pim-1 (Homo sapiens, UniProt P11309); assay type: functional
Sequence of Serine/threonine-protein kinase pim-1 (P11309 whole entry, canonical isoform): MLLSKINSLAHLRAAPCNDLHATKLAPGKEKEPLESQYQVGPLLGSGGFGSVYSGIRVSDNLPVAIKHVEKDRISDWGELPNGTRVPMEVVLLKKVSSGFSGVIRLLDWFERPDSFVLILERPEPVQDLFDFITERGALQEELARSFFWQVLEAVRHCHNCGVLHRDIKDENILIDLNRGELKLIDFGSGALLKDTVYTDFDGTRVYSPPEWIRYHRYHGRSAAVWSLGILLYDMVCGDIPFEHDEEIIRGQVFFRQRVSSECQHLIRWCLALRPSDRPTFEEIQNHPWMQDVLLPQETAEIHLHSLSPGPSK

[7] = biological target: Casein kinase I isoform alpha (Homo sapiens, UniProt P48729); assay type: functional
[8] = biological target: Serine/threonine-protein kinase TAO1 (Homo sapiens, UniProt Q7L7X3); assay type: functional
Sequence of Serine/threonine-protein kinase TAO1 (Q7L7X3 whole entry): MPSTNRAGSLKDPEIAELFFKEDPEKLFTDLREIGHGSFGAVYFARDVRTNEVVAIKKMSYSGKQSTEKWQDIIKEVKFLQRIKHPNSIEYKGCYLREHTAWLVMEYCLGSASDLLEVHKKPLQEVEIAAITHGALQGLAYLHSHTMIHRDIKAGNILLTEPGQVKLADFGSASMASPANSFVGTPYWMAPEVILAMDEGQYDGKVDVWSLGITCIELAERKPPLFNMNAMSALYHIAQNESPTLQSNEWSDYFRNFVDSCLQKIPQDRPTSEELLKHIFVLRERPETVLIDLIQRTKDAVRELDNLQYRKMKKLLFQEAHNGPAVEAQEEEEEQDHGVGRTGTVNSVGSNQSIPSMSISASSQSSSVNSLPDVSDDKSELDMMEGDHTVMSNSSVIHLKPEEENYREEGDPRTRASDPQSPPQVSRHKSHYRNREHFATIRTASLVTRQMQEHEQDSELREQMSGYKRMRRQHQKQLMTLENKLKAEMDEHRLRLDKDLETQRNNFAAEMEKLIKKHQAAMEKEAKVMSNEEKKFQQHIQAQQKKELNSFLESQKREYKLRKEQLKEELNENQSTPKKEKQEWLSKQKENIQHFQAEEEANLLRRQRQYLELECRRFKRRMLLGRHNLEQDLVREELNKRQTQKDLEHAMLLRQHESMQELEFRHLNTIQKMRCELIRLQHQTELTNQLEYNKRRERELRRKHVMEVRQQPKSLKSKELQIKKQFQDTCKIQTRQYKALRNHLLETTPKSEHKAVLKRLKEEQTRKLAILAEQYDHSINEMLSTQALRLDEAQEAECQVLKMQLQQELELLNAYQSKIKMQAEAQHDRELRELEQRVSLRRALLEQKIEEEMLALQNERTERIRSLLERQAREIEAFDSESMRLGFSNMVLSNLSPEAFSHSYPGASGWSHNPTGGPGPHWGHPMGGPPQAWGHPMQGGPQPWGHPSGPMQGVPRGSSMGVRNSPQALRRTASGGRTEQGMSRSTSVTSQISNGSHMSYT

Activated CDC42 kinase 1 = Activated CDC42 kinase 1 (Homo sapiens, UniProt Q07912); experiment: Navigating the Kinome. Panel member name: ACK1; assay type: functional
[9] = biological target: Vascular endothelial growth factor receptor 2 (Homo sapiens, UniProt P35968); assay type: functional
[10] = biological target: Dual specificity tyrosine-phosphorylation-regulated kinase 1B (Homo sapiens, UniProt Q9Y463); experiment: Navigating the Kinome. Panel member name: DYRK1B; assay type: functional
Sequence of Dual specificity tyrosine-phosphorylation-regulated kinase 1B (Q9Y463 whole entry): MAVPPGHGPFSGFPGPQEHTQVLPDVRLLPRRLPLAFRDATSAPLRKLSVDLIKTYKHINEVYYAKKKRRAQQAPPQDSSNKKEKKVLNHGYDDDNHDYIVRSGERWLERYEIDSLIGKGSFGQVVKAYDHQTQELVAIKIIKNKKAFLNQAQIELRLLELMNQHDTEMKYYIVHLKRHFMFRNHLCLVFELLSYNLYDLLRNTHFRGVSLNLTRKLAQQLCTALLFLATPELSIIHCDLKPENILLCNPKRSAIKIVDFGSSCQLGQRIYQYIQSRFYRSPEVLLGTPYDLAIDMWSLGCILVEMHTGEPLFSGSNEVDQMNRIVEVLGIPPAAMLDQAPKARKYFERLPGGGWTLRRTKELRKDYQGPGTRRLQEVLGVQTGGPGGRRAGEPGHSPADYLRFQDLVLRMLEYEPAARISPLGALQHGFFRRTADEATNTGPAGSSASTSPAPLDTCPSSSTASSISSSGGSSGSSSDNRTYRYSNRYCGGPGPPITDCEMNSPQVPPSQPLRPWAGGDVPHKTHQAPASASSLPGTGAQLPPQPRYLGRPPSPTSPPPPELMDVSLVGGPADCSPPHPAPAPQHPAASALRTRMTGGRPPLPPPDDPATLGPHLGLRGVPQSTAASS

[11] = biological target: Platelet-derived growth factor receptor alpha (Homo sapiens, UniProt P16234); experiment: Navigating the Kinome. Panel member name: PDGFRA; assay type: functional
Sequence of Platelet-derived growth factor receptor alpha (P16234 whole entry): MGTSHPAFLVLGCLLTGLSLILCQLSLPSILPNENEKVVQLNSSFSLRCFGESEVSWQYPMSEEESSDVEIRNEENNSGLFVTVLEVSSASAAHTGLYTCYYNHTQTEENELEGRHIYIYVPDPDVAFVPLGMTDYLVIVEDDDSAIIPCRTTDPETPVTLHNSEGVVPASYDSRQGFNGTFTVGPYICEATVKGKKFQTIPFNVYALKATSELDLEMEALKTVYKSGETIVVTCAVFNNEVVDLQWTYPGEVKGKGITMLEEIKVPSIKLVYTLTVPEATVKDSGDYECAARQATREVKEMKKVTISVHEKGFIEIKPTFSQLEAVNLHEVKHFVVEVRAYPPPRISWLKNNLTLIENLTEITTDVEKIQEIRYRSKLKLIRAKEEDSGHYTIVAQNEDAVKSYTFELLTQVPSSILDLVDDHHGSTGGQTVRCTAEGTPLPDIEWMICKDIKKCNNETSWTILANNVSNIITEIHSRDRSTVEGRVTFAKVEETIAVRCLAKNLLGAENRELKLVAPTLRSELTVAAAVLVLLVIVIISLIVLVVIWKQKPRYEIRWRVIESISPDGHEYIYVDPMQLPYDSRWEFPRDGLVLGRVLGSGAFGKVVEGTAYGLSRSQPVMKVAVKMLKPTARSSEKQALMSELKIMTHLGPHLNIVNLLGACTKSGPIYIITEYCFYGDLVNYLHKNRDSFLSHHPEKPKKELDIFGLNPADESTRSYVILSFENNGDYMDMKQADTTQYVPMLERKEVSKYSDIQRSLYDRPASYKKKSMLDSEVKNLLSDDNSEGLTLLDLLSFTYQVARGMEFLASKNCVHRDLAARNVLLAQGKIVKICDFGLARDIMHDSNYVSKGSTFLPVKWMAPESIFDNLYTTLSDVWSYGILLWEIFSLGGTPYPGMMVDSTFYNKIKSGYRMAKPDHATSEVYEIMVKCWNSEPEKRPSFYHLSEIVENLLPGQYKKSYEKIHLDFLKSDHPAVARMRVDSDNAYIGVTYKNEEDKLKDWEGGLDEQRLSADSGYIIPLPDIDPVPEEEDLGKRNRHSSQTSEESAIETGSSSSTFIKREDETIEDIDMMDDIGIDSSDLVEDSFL

[12] = biological target: Tyrosine-protein kinase Fyn (Homo sapiens, UniProt P06241); assay type: functional
[13] = biological target: Cyclin-dependent kinase 8 (Homo sapiens, UniProt P49336); experiment: Navigating the Kinome. Panel member name: CDK8; assay type: functional
[14] = biological target: Vascular endothelial growth factor receptor 1 (Homo sapiens, UniProt P17948); assay type: functional;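 also: measured within a kinome-wide profiling panel, FLT1 as the panel member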
[15] = biological target: BDNF/NT-3 growth factors receptor (Homo sapiens, UniProt Q16620); assay type: functional;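 also: NTRK2 measured as one member of a broad kinome-wide kinase profiling panel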
[16] = biological target: Dual specificity mitogen-activated protein kinase kinase 2 (Homo sapiens, UniProt P36507); experiment: Navigating the Kinome. Panel member name: MAP2K2; assay type: functional
Sequence of Dual specificity mitogen-activated protein kinase kinase 2 (P36507 whole entry): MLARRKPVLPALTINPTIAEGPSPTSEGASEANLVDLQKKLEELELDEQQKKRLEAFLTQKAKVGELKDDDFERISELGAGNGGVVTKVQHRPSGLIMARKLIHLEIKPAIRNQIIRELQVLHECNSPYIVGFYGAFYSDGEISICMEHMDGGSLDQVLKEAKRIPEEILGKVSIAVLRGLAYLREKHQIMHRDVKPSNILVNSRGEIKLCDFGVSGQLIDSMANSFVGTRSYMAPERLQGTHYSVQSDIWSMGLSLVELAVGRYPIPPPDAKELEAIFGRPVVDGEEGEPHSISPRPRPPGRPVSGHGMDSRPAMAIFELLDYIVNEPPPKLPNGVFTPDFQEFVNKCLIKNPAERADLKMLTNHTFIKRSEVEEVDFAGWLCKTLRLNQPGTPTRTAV

[17] = biological target: Inhibitor of nuclear factor kappa-B kinase subunit epsilon (Homo sapiens, UniProt Q14164); experiment: Navigating the Kinome. Panel member name: IKBKE; assay type: functional
[18] = biological target: Leukocyte tyrosine kinase receptor (Homo sapiens, UniProt P29376); experiment: Navigating the Kinome. Panel member name: LTK; assay type: functional
Sequence of Leukocyte tyrosine kinase receptor (P29376 whole entry): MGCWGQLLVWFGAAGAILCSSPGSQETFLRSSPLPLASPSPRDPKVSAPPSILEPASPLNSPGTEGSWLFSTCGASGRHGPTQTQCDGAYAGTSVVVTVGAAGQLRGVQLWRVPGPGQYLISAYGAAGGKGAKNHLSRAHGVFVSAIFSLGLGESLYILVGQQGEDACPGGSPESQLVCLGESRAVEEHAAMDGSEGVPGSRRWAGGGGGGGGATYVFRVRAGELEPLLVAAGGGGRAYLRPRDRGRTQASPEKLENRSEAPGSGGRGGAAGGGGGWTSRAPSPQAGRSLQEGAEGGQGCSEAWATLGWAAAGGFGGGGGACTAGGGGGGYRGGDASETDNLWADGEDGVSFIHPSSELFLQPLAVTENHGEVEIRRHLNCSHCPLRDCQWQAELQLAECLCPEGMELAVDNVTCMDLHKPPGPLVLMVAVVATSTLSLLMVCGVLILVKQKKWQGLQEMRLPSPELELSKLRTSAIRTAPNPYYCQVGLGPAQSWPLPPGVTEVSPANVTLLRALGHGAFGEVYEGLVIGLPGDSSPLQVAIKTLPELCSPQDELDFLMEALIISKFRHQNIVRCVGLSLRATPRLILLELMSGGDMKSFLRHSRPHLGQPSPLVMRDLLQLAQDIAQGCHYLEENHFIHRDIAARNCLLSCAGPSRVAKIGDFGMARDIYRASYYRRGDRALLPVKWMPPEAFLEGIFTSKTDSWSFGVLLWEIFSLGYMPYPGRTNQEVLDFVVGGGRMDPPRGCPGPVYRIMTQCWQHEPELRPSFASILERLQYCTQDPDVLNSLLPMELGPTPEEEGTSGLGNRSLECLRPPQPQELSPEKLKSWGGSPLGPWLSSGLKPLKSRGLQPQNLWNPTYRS

[19] = tested on: Streptococcus sp. 'group A'; experiment: Streptococcus pyogenes SK(-)GAS viability under kanamycin – luminescence, BacTiterGlo, confirmation, counter-screen for streptokinase expression inhibitor project, dose response (AID 1900); assay type: functional, organism-based
[20] = Luminescence Cell-Based Dose Response HTS to Identify Inhibitors of 5'UTR Stem-Loop Driven Prion Protein mRNA Translation in H4 Neuroglioblastoma Cells. [Related pubchem assays: 1827 (Project Summary), 1813 (Primary HTS)]; assay type: functional
[21] = biological target: C-C chemokine receptor type 6 (Homo sapiens, UniProt P51684); experiment: antagonism of CCR6 beta-arrestin recruitment – cell-based, luminescent beta-arrestin readout, dose response (AID 504728); assay type: functional
Beta-galactosidase = Beta-galactosidase (Escherichia coli, UniProt Q8VNN2); experiment: detection-enzyme interference by beta-gal modulators – biochemical, E. coli enzyme, set 3, artefact control for CCR6 antagonist project, dose response (AID 504712); assay type: functional
[22] = cAMP pathway inhibition in counterscreen cell line – TR-FRET cAMP detection, counter-screen for MC4R biased antagonist project, dose response (AID 602305); assay type: functional, cell-based;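 also: U2OS cells stimulated with forskolin near its EC80 as the cAMP inducer; potency is for inhibition of forskolin-stimulated cAMP signaling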
[23] = biological target: Matrix metalloproteinase-14 (Homo sapiens, UniProt P50281); experiment: SAR confirmation of uHTS hits for a small molecule inhibitors of MT1-MMP activation in a fluorescence assay.; assay type: functional

Cc1ccc(NC(=O)COc2cccc(/C=C3\SC(=S)N(CCC(=O)O)C3=O)c2)cc1Cl
IC50 [1]: > 99 µM (inactive)
IC50 [2]: 12.7 µM (active)

COc1cccc(C(C)NC(=O)c2ccc(-c3ccncc3)s2)c1 (stereo not given)
Ki [3]: 0.316 µM (active)
Ki [4]: > 3.98 µM (inactive)
Ki [5]: > 2.51 µM (inactive)
Ki [6]: > 6.31 µM (inactive)
Ki [7]: 1.58 µM (active)
Ki [8]: > 6.31 µM (inactive)
Ki (Activated CDC42 kinase 1): > 3.98 µM (inactive)
Ki [9]: > 2.51 µM (inactive)
Ki [10]: > 2.51 µM (inactive)
Ki [11]: > 2.51 µM (inactive)
Ki [12]: > 6.31 µM (inactive)
Ki [13]: 3.16 µM (active)
Ki [14]: > 3.98 µM (inactive)
Ki [15]: > 3.98 µM (inactive)
Ki [16]: > 3.98 µM (inactive)
Ki [17]: > 3.16 µM (inactive)
Ki [18]: > 2.51 µM (inactive)

O=Nc1c(-c2c(O)[nH]c3cc(Br)ccc23)[nH]c2ccccc12
EC50 [19]: 2.6 µM (active)
EC50 [20]: > 120 µM (not active)
IC50 [21]: > 66.6 µM (inactive)
IC50 (Beta-galactosidase): 40.8 µM (inactive)
IC50 [22]: > 64.6 µM (inactive)
IC50 [23]: 8.89 µM (active)
